Values of other authors, collected in patent publication US7691599B2, “Mammalian genes involved in viral infection and tumor suppression” (Zirus, Inc., priority 2002, dated 2010).
Read-outs that look alike come from different tables or passages of the source.

What was measured:
[1] = for plasma concentration at 3 h: 3 h after single oral dose of 300 mg V11294A; for AUC(0, infinity) / t½ / Cmax: plasma; for AUC(0, infinity) / t½: single oral dose of 300 mg V11294A; for Cmax: single oral fasting dose of 300 mg V11294A, mean +/− s.d.
[2] = test system: tumour necrosis factor (TNF) release in whole blood
[3] = test system: mononuclear cell proliferation; conditions: whole blood, 3 h (P<<0.05)
[4] = target: T1, I747T mutant NR3C1 (glucocorticoid receptor) (Homo sapiens, UniProt P04150, I747T)
T1 sequence (P04150 1-777 I747T): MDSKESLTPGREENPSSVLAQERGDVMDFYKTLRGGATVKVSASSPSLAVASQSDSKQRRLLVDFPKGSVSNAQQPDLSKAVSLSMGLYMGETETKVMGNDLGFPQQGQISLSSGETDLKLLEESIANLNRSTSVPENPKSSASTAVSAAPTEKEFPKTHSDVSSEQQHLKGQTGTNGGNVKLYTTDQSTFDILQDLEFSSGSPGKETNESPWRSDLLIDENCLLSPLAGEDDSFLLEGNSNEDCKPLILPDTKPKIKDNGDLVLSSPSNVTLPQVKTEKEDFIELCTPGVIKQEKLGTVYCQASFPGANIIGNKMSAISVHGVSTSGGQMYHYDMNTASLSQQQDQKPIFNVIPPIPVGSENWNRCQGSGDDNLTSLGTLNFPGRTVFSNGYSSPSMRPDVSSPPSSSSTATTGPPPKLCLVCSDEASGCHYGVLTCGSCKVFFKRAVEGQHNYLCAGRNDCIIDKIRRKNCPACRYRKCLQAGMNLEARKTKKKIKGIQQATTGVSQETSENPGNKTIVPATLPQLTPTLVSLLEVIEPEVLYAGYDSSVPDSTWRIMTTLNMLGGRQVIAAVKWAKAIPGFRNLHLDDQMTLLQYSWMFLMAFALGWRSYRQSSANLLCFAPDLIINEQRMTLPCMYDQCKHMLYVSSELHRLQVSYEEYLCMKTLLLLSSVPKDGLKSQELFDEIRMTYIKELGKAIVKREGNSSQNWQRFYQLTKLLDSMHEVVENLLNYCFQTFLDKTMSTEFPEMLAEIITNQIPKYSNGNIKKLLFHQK

monoamine oxidase type A = target: T2, monoamine oxidase type A (Mus musculus, UniProt Q64133); conditions: transgenic mice with reduced glucocorticoid receptor function
T2 construct: from tissue; host or cells: whole animal: transgenic mice expressing antisense RNA against glucocorticoid receptor mRNA
T2 sequence (Q64133 1-526): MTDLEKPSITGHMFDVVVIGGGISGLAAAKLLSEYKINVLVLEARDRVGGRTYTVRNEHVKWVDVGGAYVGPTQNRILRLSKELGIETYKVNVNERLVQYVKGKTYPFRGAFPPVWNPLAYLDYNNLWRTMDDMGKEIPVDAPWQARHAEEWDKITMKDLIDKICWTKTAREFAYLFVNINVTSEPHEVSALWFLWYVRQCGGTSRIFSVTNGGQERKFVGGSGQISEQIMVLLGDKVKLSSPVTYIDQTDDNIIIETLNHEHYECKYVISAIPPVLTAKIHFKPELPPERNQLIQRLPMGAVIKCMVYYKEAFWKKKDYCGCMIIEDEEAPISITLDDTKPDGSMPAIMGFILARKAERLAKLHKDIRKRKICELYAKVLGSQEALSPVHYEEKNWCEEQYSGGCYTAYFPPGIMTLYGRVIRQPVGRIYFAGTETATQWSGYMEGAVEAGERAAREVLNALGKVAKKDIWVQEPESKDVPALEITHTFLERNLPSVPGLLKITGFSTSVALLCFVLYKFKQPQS

ADAM 10 = target: T3, ADAM 10 (Bos taurus, UniProt Q10741); conditions: ADAM 10 purified from bovine spleen membranes
T3 construct: purified a protease with characteristics of TNFalpha convertase from bovine spleen membranes; from tissue; host or cells: bovine spleen membranes
T3 sequence (Q10741 214-748): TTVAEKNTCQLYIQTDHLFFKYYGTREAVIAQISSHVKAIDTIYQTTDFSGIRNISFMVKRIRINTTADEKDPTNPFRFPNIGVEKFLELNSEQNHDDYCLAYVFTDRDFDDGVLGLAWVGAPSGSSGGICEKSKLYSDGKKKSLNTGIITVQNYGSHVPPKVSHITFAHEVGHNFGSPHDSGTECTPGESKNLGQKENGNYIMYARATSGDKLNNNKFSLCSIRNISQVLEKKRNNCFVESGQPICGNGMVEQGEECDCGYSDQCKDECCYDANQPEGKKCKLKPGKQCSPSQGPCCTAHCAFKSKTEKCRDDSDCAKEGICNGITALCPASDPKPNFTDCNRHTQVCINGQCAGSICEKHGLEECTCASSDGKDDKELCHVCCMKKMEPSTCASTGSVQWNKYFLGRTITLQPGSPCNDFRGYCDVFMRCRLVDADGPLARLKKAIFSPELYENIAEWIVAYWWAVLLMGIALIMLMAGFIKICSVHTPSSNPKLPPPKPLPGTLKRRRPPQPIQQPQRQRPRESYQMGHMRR

SMILES	plasma concentration at 3 h [1]	AUC(0, infinity) [1]	t½ [1]	Cmax ([1]; healthy volunteers)	transactivation by I747T mutant NR3C1 [4]	also measured
COc1ccc(Cn2cnc(N)c3nc(C(C)C)nc2-3)cc1OC1CCCC1 [V10332, 3-(3-cyclopentyloxy-4-methoxy-benzyl)-8-isopropyl-3H-purin-6-ylamine]	860 ± 300 ng/mL	18600 ± 8500 ng·h/mL	9.5 ± 1.7 h	1000 ± 400 ng/mL		
CCNc1ncn(Cc2ccc(OC)c(OC3CCCC3)c2)c2nc(C(C)C)nc1-2.Cl [V11294A, 3-(3-cyclopentyloxy-4-methoxybenzyl)-6-ethylamino-8-isopropyl-3H purine hydrochloride]	1300 ± 330 ng/mL	18100 ± 6100 ng·h/mL	9.7 ± 3.9 h	1398 ± 298 ng/mL		adverse reactions ([1]; single oral administration, 300 mg, healthy volunteers): No adverse reactions were noted; LPS-induced TNF release ([2]; 3 h post ingestion (P<<0.001)): significant reduction; LPS-induced TNF release ([2]; 24 h post ingestion (P<<0.05)): significant reduction; amount of TNF released in response to LPS ([2]; LPS 4 ng ml−1, whole blood, 3 h postdose (before 778+/−87, P=0.02)): 566 ± 72 pmol/mL; PHA-induced proliferation [3]: inhibited
C[C@]12C[C@H](O)[C@H]3[C@@H](CCC4=CC(=O)CC[C@@]43C)[C@@H]1CC[C@@H]2C(=O)CO [corticosterone]					completely inactive	
C[C@]12CCC(=O)C=C1CC[C@@H]1[C@@H]2[C@@H](O)C[C@@]2(C)[C@H]1CC[C@]2(O)C(=O)CO [cortisol]					completely inactive	
O=C(NCCN1CCOCC1)c1ccc(Cl)cc1 [moclobemide]						behavioral deficits (monoamine oxidase type A): reversed the behavioral deficits
CC(C)C[C@H](NP(=O)(O)O[C@@H]1O[C@@H](C)[C@H](O)[C@@H](O)[C@H]1O)C(=O)N[C@@H](Cc1c[nH]c2ccccc12)C(=O)O [phosphoramidon]						sensitivity of the enzyme to inhibitor (ADAM 10): insensitive
